One assay has as its target T1, hA2B AR (Homo sapiens, UniProt P29275).
T1 construct: host or cells: HEK-A2B (HEK-293T-A2B) cell line
T1 sequence (P29275 1-332): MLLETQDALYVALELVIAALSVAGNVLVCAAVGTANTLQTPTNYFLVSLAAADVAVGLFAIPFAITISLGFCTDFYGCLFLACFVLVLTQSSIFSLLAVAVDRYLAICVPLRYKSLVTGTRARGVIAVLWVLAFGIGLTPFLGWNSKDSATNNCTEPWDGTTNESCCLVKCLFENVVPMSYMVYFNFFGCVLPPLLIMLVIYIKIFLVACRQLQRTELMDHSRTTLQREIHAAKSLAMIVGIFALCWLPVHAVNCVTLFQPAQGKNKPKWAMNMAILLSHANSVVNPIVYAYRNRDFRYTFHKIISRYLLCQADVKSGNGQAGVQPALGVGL
The assay is described as follows: Radioligand competition binding assay at hA2B AR. The settings on record: 10 μM compound; [3H]DPCPX; HEK-293 cells; read-out: Percentage Inhibition (%) at 10 μM, hA2B AR. As to the method: (§1) All the synthesized compounds were screened with radioligand binding assays at hARs. First, the percentage of inhibition was measured by treatment of each hAR subtype with 10 μM of each compound (Table 1).
hA2B AR competition binding experiments were carried out in a multiscreen GF/C 96-well plate. In each well was incubated 25 µg of membranes from Euroscreen HEK-A2B cell line and prepared in laboratory, 25 nM [^3H]-DPCPX (140 Ci/mmol, 1 mCi/mL, Perkin Elmer NET974001MC) and compounds studied according to standard protocol. Non-specific binding was determined in the presence of NECA 1000 µM (Sigma E2397). The reaction mixture (Vt: 250 µL/well) was incubated at 25°C for 30 min, 200 µL was transferred to GF/C 96-well plate (Millipore, Madrid, Spain), and pretreated with binding buffer (Tris-HCl 50 Mm, EDTA 1 mM, MgCl2 5 mM, Bacitracin […], adenosine deaminase 2 U/Ml, pH = 6.5). It was then filtered and washed four times with 250 μL wash buffer (Tris-HCl 50 mM, EDTA 1 mM, MgCl2 5 mM, pH = 6.5), before being measured in a microplate beta scintillation counter (MicrobetaTrilux, PerkinElmer, Madrid, Spain).

The next assay has as its target T2, hA3 AR (Homo sapiens, UniProt P0DMS8).
T2 sequence (P0DMS8 1-318): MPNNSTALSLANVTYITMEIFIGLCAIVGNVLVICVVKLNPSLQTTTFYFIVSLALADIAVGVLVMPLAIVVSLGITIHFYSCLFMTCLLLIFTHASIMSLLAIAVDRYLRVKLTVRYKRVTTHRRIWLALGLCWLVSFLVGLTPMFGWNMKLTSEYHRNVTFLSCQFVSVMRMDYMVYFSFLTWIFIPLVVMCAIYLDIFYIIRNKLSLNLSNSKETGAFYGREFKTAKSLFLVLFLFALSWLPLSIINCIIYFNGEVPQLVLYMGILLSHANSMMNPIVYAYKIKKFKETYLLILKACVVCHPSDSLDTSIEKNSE
Put plainly: Radioligand competition binding assay at hA3 AR. The conditions noted are these: [3H]NECA; for Percentage Inhibition (%) at 10 μM, hA3 AR / inhibition at 10 µM: 10 μM compound; for inhibition at 10 µM: read-out: Percentage Inhibition (%) at 10 μM, hA3 AR. Also noted: expressed in transfected cells; host or cells: Hela-A3 cell line. As to the method:
as §1
(§2) hA1, hA2A, and hA3 AR competition binding experiments were carried out in a multiscreen GF/C 96-well plate (Millipore, Madrid, Spain) pretreated with binding buffer (Hepes 20 mM, NaCl 100 mM, MgCl2 10 mM, 2 U/mL adenosine deaminase, pH = 7.4 for hA1 AR; Tris-HCl 50 mM, EDTA 1 mM, MgCl2 10 mM, 2 U/mL adenosine deaminase, pH = 7.4 for hA2A AR; and Tris-HCl 50 mM, EDTA 1 mM, MgCl2 5 mM, 2 U/mL adenosine deaminase, pH = 7.4 for hA3 AR, respectively). In each well was incubated 5 µg of membranes from Euroscreen CHO-A1 cell line, 5µg of membranes from Hela-A2A cell line, or 30µg of membranes from Hela-A3 cell line and prepared in laboratory: 1 nM [^3H]-DPCPX (140 Ci/mmol, 1 mCi/Ml, Perkin Elmer NET974001MC) for hA1 AR; 1 nM [^3H]-ZM241385 (50 Ci/mmol, 1 mCi/mL, ARC-ITISA 0884) for hA2A AR; and 10 nM [^3H]-NECA (29.6 Ci/mmol, 1 mCi/mL, Perkin Elmer NET811250UC) for hA3 AR, respectively; and the compounds studied according to standard protocol. Non-specific binding was determined in the presence of R-PIA 10 µM (Sigma P4532) for hA1 AR; of NECA 50 µM (Sigma E2387) for hA2A AR; and of R-PIA 100 µM (Sigma P4532) for hA3 AR, respectively. The reaction mixture (Vt: 200 µL/well) was incubated at 25 °C for 60 min (hA1 AR), 30min (hA2A AR), or 180min (hA3 AR); whereafter it was filtered and washed four times (hA1 and hA2A AR) or six times (hA3 AR) with 250 μL wash buffer (Hepes 20 mM, NaCl 100 mM, MgCl2 10 mM pH = 7.4, for hA1 AR; Tris-HCl 50 mM, EDTA 1 mM, MgCl2 10 mM, pH = 7.4, for hA2A AR; and Tris-HCl 50mM pH = 7.4, for hA3 AR, respectively) before being measured in a microplate beta scintillation counter (MicrobetaTrilux, PerkinElmer, Madrid, Spain).
A general note: In a radioligand displacement assay an active substance lowers the binding of a labelled ligand.

Another assay deals with T3, hA1 AR (Homo sapiens, UniProt P30542).
T3 construct: host or cells: CHO-A1 (CHO cells expressing hA1 AR)
T3 sequence (P30542 1-326): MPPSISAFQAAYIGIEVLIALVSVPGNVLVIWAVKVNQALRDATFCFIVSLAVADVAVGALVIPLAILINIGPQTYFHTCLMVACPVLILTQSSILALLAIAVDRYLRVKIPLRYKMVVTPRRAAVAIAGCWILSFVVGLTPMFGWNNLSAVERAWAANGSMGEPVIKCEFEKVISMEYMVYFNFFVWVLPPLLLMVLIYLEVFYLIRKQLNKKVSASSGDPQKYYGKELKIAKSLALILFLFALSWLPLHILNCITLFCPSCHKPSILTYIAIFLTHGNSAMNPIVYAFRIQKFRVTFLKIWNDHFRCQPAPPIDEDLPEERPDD
The assay is described as follows: Radioligand competition binding assay at hA1 AR. The conditions noted are these: for inhibition at 10 µM / Percentage Inhibition (%) at 10 μM, hA1 AR: 10 μM compound; for inhibition at 10 µM / Ki / Percentage Inhibition (%) at 10 μM, hA1 AR: [3H]DPCPX, CHO cells; for inhibition at 10 µM: read-out: Percentage Inhibition (%) at 10 μM, hA1 AR. As to the method: as §1, §2

The target of another assay is T4, hA2A AR (Homo sapiens, UniProt P29274).
T4 construct: expressed in transfected cells; host or cells: Hela-A2A cell line
Put plainly: Radioligand competition binding assay at hA2A AR. The settings on record: 10 μM compound, [3H]ZM241385, Hela cells; for inhibition at 10 µM: read-out: Percentage Inhibition (%) at 10 μM, hA2A AR. As to the method: as §1, §2

Structures are written as SMILES. “And” between values parts separate entries of the source, which are not always exact repeats. Equal values may be shown once. Where only a bound is given, the exact number is not on record here.

T4 sequence (P29274 whole entry): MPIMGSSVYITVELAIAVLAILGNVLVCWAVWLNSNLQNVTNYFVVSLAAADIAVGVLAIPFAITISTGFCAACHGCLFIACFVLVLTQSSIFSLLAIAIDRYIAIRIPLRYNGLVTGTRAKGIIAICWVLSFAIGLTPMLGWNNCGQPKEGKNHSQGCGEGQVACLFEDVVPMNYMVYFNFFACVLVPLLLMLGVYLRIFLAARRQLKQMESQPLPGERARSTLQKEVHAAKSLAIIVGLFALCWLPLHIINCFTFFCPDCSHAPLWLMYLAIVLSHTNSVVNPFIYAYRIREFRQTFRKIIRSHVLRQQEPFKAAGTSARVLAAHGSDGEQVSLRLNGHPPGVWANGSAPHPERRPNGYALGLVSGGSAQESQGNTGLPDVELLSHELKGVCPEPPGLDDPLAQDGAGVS

Usually inhibition stands for the drop in the measured response relative to a control, in per cent. A word on the Ki: it is the equilibrium dissociation constant of an inhibitor or competing ligand from its target. For the molecule `COc1ccc(Nc2nc(N)nc(-c3ccc(O)cc3)n2)cc1F` [Compound 9a, 4-{4-amino-6-[(3-fluoro-4-methoxyphenyl)amino]-1,3,5-triazin-2-yl}phenol], the inhibition at 10 µM at hA2B AR is 72 ± 2%; at hA3 AR, above 95%; on hA1 AR, 99 ± 1%; on hA2A AR, 58 ± 1%. The “Percentage Inhibition (%) at 10 μM, hA3 AR” value on hA3 AR was found to be 97 ± 1%. Moreover, the inhibition constant (Ki) is 0.0555 µM on hA3 AR and 0.139 µM at hA1 AR. Moreover, the “Selectivity (hA1 AR:hA3 AR)” value at hA1 AR (ratio of Ki hA1 AR to Ki hA3 AR) was 2.5 and 2.51. Besides, at hA2A AR (10 µM), the “Percentage Inhibition (%) at 10 μM, hA2A AR” value worked out at 56 ± 3%.
With `COc1cc(Nc2nc(N)nc(-c3ccc(O)cc3)n2)cc(OC)c1` [Compound 9b, 4-{4-amino-6-[(3,5-dimethoxyphenyl)amino]-1,3,5-triazin-2-yl}phenol], the inhibition at 10 µM at hA2B AR is 62 ± 2%; at hA3 AR, 93 ± 1%; on hA1 AR, 99 ± 1%; at hA2A AR, 84 ± 4%. For the same molecule, the Ki on hA1 AR was found to be 0.0697 µM.
On to `Nc1nc(Nc2cccc(C(F)(F)F)c2)nc(-c2ccc(O)cc2)n1` [Compound 9d, 4-(4-amino-6-{[3-(trifluoromethyl)phenyl]amino}-1,3,5-triazin-2-yl)phenol], for which the inhibition at 10 µM was 74 ± 1% on hA2B AR, above 95% at hA3 AR, 69 ± 2% on hA1 AR and 40 ± 5% at hA2A AR. For the same molecule, at hA3 AR, the “Percentage Inhibition (%) at 10 μM, hA3 AR” value was 95 ± 1%. Moreover, the Ki at hA3 AR was determined as 1.26 µM.
On to `Cc1cc(C)cc(Nc2nc(N)nc(-c3ccc(O)cc3)n2)c1` [Compound 9e, 4-{4-amino-6-[(3,5-dimethylphenyl)amino]-1,3,5-triazin-2-yl}phenol], for which the inhibition at 10 µM at hA2B AR was 42 ± 2%; on hA3 AR, 92 ± 1%; at hA1 AR it was above 95%; at hA2A AR, 58 ± 3%. In addition, the “Percentage Inhibition (%) at 10 μM, hA1 AR” value on hA1 AR (10 µM) is listed as 96 ± 3%. The molecule further yielded a Ki on hA1 AR of 0.872 µM.
As to `Nc1nc(Nc2ccc(N3CCCCC3)cc2)nc(-c2ccc(O)cc2)n1` [Compound 9f, 4-(4-amino-6-{[4-(piperidin-1-yl)phenyl]amino}-1,3,5-triazin-2-yl)phenol], the inhibition at 10 µM on hA2B AR is 44 ± 4%; at hA3 AR, 38 ± 1%; at hA1 AR, 28 ± 1%; at hA2A AR, 28 ± 3%.
With `Cc1ccc(Nc2nc(N)nc(-c3ccc(O)cc3)n2)c(C)c1` [Compound 9g, 4-{4-amino-6-[(2,4-dimethylphenyl)amino]-1,3,5-triazin-2-yl}phenol], the inhibition at 10 µM at hA2B AR was 47 ± 2%; on hA3 AR, 91 ± 1%; at hA1 AR it was above 95%; at hA2A AR it was 80 ± 4%. Also, at hA1 AR (10 µM), the “Percentage Inhibition (%) at 10 μM, hA1 AR” value was 99 ± 1%. This molecule yielded an inhibition constant Ki on hA1 AR of 0.116 µM.
Take `COc1ccc(Nc2nc(N)nc(-c3ccc(OC(F)(F)F)cc3)n2)cc1F` [Compound 11c, N^2-(3-fluoro-4-methoxyphenyl)-6-[4-(trifluoromethoxy)phenyl]-1,3,5-triazine-2,4-diamine]: the inhibition at 10 µM at hA2B AR turned out to be 27 ± 6%; at hA3 AR it was 60 ± 1%; on hA1 AR, 48 ± 4%; at hA2A AR, 81 ± 1%.
Consider `COc1ccc(Nc2nc(N)nc(-c3ccc(C(F)(F)F)cc3)n2)cc1F` [Compound 11d, N^2-(3-fluoro-4-methoxyphenyl)-6-[4-(trifluoromethyl)phenyl]-1,3,5-triazine-2,4-diamine], for which the inhibition at 10 µM on hA2B AR was found to be 93 ± 3%; on hA3 AR, 79 ± 1%; at hA1 AR it was 74 ± 1%; on hA2A AR it was 30 ± 1%.
For `COc1ccc(Nc2nc(N)nc(-c3ccc(C#N)cc3)n2)cc1F` [Compound 11e, 4-{4-amino-6-[(3-fluoro-4-methoxyphenyl)amino]-1,3,5-triazin-2-yl}benzonitrile], in that order: 52 ± 1%, 72 ± 3%, 45 ± 5% and 50 ± 2%.
With `COC(=O)c1ccc(-c2nc(N)nc(Nc3ccc(OC)c(F)c3)n2)cc1` [Compound 11f, methyl-4-{4-amino-6-[(3-fluoro-4-methoxyphenyl)amino]-1,3,5-triazin-2-yl}benzoate], the inhibition at 10 µM on hA2B AR came to 55 ± 2%; at hA3 AR it was 85 ± 1%; on hA1 AR, 52 ± 1%; on hA2A AR, 35 ± 6%.
For `CCOC(=O)c1ccc(-c2nc(N)nc(Nc3ccc(OC)c(F)c3)n2)cc1` [Compound 11g, ethyl-4-{4-amino-6-[(3-fluoro-4-methoxyphenyl)amino]-1,3,5-triazin-2-yl}benzoate], in that order: 35 ± 2%, 78 ± 3%, 56 ± 1% and 48 ± 6%.
For `COc1ccc(Nc2nc(N)nc(-c3cc(F)c(O)c(F)c3)n2)cc1F` [Compound 11h, 4-{4-amino-6-[(3-fluoro-4-methoxyphenyl)amino]-1,3,5-triazin-2-yl}-2,6-difluorophenol], the inhibition at 10 µM at hA2B AR was 66 ± 6%; on hA3 AR it was 79 ± 1%; at hA1 AR, 88 ± 1%; at hA2A AR it was 26 ± 5%. On hA1 AR, the “Percentage Inhibition (%) at 10 μM, hA1 AR” value is “inactive”.

These data come from publication PMC9268102, “Design, Synthesis and Biological Evaluation of 1,3,5-Triazine Derivatives Targeting hA1 and hA3 Adenosine Receptor” (Molecules, 2022).
